Laboratory results reported in US9481654B2, “Compositions and methods for inhibition of the JAK pathway” (Rigel Pharmaceuticals, Inc., priority 2006, dated 2016).

The molecules below were run on IFNγ induced ICAM-1 (CD54) up-regulation in A549 lung epithelial cells (JAK/Stat pathway) (assay: A549 Epithelial Line Stimulated with IFNγ (ICAM-1 surface expression, flow cytometry)). Details: Table III Example 5.
Type: cell-based, human
Procedure, shortened: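 A549 cells (20,000/well, adhered overnight) pre-treated with compound 1 h, then IFNγ 75 ng/mL for 24 h; compound 30 μM–14 nM in 5% FBS, 0.3% DMSO. Surface ICAM-1 stained with APC anti-CD54, geometric mean by flow cytometry; dose-response gives EC50.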

Row | Compound | IC50 [nM]
1 | Cc1cnc(Nc2cccc(S(=O)(=O)NC(C)C)c2)nc1Nc1ccc(CNS(=O)(=O)C2CC2)cc1 [Compound I-173, N4-(4-cyclopropylsulfonylaminomethyl)phenyl-N2-(3-isopropylaminosulfonyl)phenyl-5-methyl-2,4-pyrimidinediamine] | 1880
2 | CCNS(=O)(=O)c1ccc(Nc2ncc(C)c(Nc3ccc(CNS(=O)(=O)C4CC4)cc3)n2)cc1 [Compound I-175, N4-(4-cyclopropylsulfonylaminomethyl)phenyl-N2-(4-ethylaminosulfonyl)phenyl-5-methyl-2,4-pyrimidinediamine] | 2370
3 | CCNS(=O)(=O)c1cccc(Nc2ncc(C)c(Nc3ccc(CNS(=O)(=O)C4CC4)cc3)n2)c1 [Compound I-176, N4-(4-cyclopropylsulfonylaminomethyl)phenyl-N2-(3-ethylaminosulfonyl)phenyl-5-methyl-2,4-pyrimidinediamine] | 10400
4 | CCCNS(=O)(=O)c1cccc(Nc2ncc(C)c(Nc3ccc(CNS(=O)(=O)C4CC4)cc3)n2)c1 [Compound I-178, N4-(4-cyclopropylsulfonylaminomethyl)phenyl-5-methyl-N2-(3-propylaminosulfonyl)phenyl-2,4-pyrimidinediamine] | 5450
5 | Cc1cnc(Nc2cccc(S(=O)(=O)NCC3CC3)c2)nc1Nc1ccc(CNS(=O)(=O)C2CC2)cc1 [Compound I-180, N2-(3-cyclopropylmethylaminosulfonyl)phenyl-N4-(4-cyclopropylsulfonylaminomethyl)phenyl-5-methyl-2,4-pyrimidinediamine] | 2220
6 | COCCCNS(=O)(=O)c1ccc(Nc2ncc(C)c(Nc3ccc(CNS(=O)(=O)C4CC4)cc3)n2)cc1 [Compound I-181, N4-(4-cyclopropylsulfonylaminomethyl)phenyl-N2-[4-(3-methoxypropyl)aminosulfonyl]phenyl-5-methyl-2,4-pyrimidinediamine] | 2350
7 | COCCCNS(=O)(=O)c1cccc(Nc2ncc(C)c(Nc3ccc(CNS(=O)(=O)C4CC4)cc3)n2)c1 [Compound I-182, N4-(4-cyclopropylsulfonylaminomethyl)phenyl-N2-[3-(3-methoxypropyl)aminosulfonyl]phenyl-5-methyl-2,4-pyrimidinediamine] | 2250
8 | COCCNS(=O)(=O)c1cccc(Nc2ncc(C)c(Nc3ccc(CNS(=O)(=O)C4CC4)cc3)n2)c1 [Compound I-184, N4-(4-cyclopropylsulfonylaminomethyl)phenyl-N2-[3-(2-methoxyethyl)aminosulfonyl]phenyl-5-methyl-2,4-pyrimidinediamine] | 1410
9 | CNS(=O)(=O)c1cc(Nc2ncc(C)c(Nc3ccc(CNS(=O)(=O)C4CC4)cc3)n2)ccc1C [Compound I-185, N4-(4-cyclopropylsulfonylaminomethyl)phenyl-5-methyl-N2-(4-methyl-3-methylaminosulfonyl)phenyl-2,4-pyrimidinediamine] | 4100
10 | CCNS(=O)(=O)c1cc(Nc2ncc(C)c(Nc3ccc(CNS(=O)(=O)C4CC4)cc3)n2)ccc1C [Compound I-186, N4-(4-cyclopropylsulfonylaminomethyl)phenyl-N2-(3-ethylaminosulfonyl-4-methyl)phenyl-5-methyl-2,4-pyrimidinediamine] | 1760
11 | CCCNS(=O)(=O)c1cc(Nc2ncc(C)c(Nc3ccc(CNS(=O)(=O)C4CC4)cc3)n2)ccc1C [Compound I-187, N4-(4-cyclopropylsulfonylaminomethyl)phenyl-5-methyl-N2-(4-methyl-3-propylaminosulfonyl)phenyl-2,4-pyrimidinediamine] | 2420
12 | C#CCNS(=O)(=O)c1cc(Nc2ncc(C)c(Nc3ccc(CNS(=O)(=O)C4CC4)cc3)n2)ccc1C [Compound I-188, N4-(4-cyclopropylsulfonylaminomethyl)phenyl-5-methyl-N2-(4-methyl-3-propargylaminosulfonyl)phenyl-2,4-pyrimidinediamine] | 5080
